Measured values from patent publication US20230113037A1 (Bayer Aktiengesellschaft, priority 2019, published 2023).
pIC50: −log10 of the molar value. Several values for one entry are separate records, joined by “and”; a condition that tells them apart may be missing. Equal values may be shown once. Read-outs that look alike come from different tables or passages of the source.

Key:
AHR [1] = molecular target: T1, AHR (Homo sapiens, UniProt P35869); assay: In vitro assay 1: antagonism in human cell line (AHR transactivation, firefly luciferase reporter, kynurenic acid prestimulated); type: cell-based; conditions: AHR Antagonism Human IC50 [M]
T1 construct: U87 MG glioblastoma cells (ATCC #HTB-14) endogenously expressing AHR; endogenous in cells; host or cells: U87 MG glioblastoma cells (ATCC #HTB-14)
T1 sequence (P35869 11-848): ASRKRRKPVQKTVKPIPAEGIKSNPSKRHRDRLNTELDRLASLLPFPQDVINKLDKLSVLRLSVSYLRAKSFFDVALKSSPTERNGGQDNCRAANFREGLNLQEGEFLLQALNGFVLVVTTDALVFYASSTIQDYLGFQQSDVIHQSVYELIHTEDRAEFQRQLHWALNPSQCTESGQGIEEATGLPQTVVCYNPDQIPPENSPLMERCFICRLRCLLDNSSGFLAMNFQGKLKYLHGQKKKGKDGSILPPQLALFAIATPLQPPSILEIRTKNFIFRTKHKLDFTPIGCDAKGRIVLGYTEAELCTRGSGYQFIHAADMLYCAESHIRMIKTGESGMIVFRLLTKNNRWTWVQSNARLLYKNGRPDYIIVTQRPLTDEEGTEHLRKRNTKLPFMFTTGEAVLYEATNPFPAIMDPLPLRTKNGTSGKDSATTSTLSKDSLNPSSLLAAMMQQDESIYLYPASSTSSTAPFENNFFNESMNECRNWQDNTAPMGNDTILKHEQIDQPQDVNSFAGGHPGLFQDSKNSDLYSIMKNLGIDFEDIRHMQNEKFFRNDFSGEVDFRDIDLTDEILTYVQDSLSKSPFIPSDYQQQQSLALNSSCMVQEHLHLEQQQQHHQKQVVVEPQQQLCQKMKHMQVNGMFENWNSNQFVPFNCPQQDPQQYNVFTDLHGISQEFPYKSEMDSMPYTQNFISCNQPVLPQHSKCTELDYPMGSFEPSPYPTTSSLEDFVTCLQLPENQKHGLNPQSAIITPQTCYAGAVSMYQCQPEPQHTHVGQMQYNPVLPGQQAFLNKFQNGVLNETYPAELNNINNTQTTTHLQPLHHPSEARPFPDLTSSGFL
Procedure, shortened: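 U87 MG + DRE-firefly/constitutive-Renilla stable reporters; kynurenic acid prestim; dual-luc read; Renilla = tox; normalized vs pos/neg controls (pos: 150 μM KYNA + 5 μM staurosporine).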

AHR [2] = molecular target: T2, AHR (Mus musculus, UniProt P30561); assay: In vitro assay 3: antagonism in mouse cell line (AHR transactivation, firefly luciferase reporter, kynurenic acid prestimulated); type: cell-based
T2 sequence (P30561 1-848 P471L/N533S/M589L): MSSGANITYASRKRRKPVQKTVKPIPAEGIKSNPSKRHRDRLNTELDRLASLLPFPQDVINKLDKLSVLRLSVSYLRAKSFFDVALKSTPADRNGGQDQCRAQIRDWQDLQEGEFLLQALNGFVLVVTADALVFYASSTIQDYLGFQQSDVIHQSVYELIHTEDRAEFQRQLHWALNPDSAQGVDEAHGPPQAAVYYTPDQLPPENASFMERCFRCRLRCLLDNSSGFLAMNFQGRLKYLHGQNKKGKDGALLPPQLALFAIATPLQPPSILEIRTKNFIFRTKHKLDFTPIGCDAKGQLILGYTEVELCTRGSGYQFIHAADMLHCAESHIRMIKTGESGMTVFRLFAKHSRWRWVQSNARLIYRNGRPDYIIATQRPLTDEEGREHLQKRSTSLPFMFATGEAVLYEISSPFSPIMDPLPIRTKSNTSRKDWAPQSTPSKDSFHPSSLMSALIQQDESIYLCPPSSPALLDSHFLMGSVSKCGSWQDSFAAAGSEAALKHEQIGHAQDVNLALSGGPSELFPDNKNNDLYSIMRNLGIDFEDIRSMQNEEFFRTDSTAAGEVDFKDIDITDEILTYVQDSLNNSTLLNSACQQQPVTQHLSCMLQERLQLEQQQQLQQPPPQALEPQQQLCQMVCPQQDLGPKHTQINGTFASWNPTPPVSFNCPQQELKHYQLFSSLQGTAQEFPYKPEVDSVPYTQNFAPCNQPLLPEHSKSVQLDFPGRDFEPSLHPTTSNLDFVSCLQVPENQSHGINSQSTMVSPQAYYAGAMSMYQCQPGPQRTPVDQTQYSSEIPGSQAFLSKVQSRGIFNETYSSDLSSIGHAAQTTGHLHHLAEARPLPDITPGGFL
Procedure, shortened: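 Mouse cells stably carrying a DRE-driven, AHR-inducible firefly luciferase reporter were prestimulated with the endogenous agonist kynurenic acid before compound addition. Luciferase activity was measured by luminescence and normalized to positive and negative controls, with cells lacking kynurenic acid serving as full-inhibition control. Repeat tests are reported as mean or median.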

[3] = mouse Hepa 1c1c7 cells, 200 μM kynurenic acid, 20 hours, read-out: AHR Antagonism Mouse IC50
[4] = Hepa 1c1c7 cells, 200 μM kynurenic acid, 20 hours, firefly luciferase reporter, read-out: AHR Antagonism Mouse IC50

Row | SMILES | IC50 (AHR [1]) [M] | pIC50 (AHR [2]; [3]) | other results
1 | O=C1NCCCC[C@H]1Nc1nc2c(Cl)cccc2c2nc(-c3ccncc3)nn12 [Example 193, (3R)-3-{[7-Chloro-2-(pyridin-4-yl)[1,2,4]triazolo[1,5-c]quinazolin-5-yl]amino}azepan-2-one] | 2.05e-08 | 7.06 | 
2 | CCCNC(=O)[C@H](CC)Nc1nc2c(Br)cccc2c2nc(-c3ccc(Cl)cc3OC(F)(F)F)nn12 [Example 685, (2S)-2-({7-bromo-2-[4-chloro-2-(trifluoromethoxy)phenyl][1,2,4]triazolo[1,5-c]quinazolin-5-yl}amino)-N-propylbutanamide] | > 2e-06 | 6.85 | 
3 | O=C1NCCCCCC1Nc1nc2ccccc2c2nc(-c3ccccc3OC(F)F)nn12 (stereo not drawn) [Example 474, 3-({2-[2-(difluoromethoxy)phenyl][1,2,4]triazolo[1,5-c]quinazolin-5-yl}amino)azocan-2-one] | 3.11e-09 | 8.86 | 
4 | COC(=O)[C@H](Nc1nc2c(Br)cccc2c2nc(-c3ccc(OC)cc3)nn12)C(C)C [Example 867, methyl N-[7-bromo-2-(4-methoxyphenyl)[1,2,4]triazolo[1,5-c]quinazolin-5-yl]-D-valinate] |  |  | IC50 (AHR [1]; firefly luciferase reporter): 2.6e-09 M; pIC50 (AHR [2]; [4]): 8.52
5 | CC(C)Sc1cccc2c1nc(N[C@@H]1CCCCNC1=O)n1nc(-c3cnn(C)c3)nc21 [Example 768] | 1.32e-07 |  | pIC50 (AHR [2]; read-out: AHR Antagonism Mouse IC50, mouse Hepa 1c1c7 cells, 200 μM kynurenic acid, 20 hours): 5.91
6 | COc1ccc(-c2nc3c4ccccc4nc(N[C@@H]4CCCCNC4=O)n3n2)cc1C [Example 627, (3R)-3-{[2-(4-methoxy-3-methylphenyl)[1,2,4]triazolo[1,5-c]quinazolin-5-yl]amino}azepan-2-one] | 6.68e-10 | 9.49 | 
7 | Cc1cc(-c2nc3c4ccccc4nc(N[C@@H]4CCCNC4=O)n3n2)cs1 [Example 354, (3R)-3-{[2-(5-methylthiophen-3-yl)[1,2,4]triazolo[1,5-c]quinazolin-5-yl]amino}piperidin-2-one] | 4.05e-08 | 7.11 | 
8 | COc1cccc(-c2nc3c4ccc(F)cc4nc(N[C@@H]4CCNC4=O)n3n2)c1 [Example 152, (3R)-3-{[8-fluoro-2-(3-methoxyphenyl)[1,2,4]triazolo[1,5-c]quinazolin-5-yl]amino}pyrrolidin-2-one] | 5.28e-08 | 6.45 | 
9 | COc1cccc(-c2nc3c4ccccc4nc(N[C@H](C)C(=O)N(C)C)n3n2)c1 [Example 110, N^2-[2-(3-methoxyphenyl)[1,2,4]triazolo[1,5-c]quinazolin-5-yl]-N,N-dimethyl-D-alaninamide] | 1.01e-08 | 8.31 | 
10 | CC(C)n1cc(-c2nc3c4cccc(F)c4nc(N[C@@H]4CCCCNC4=O)n3n2)cn1 [Example 836] |  |  | IC50 (AHR [1]; firefly luciferase reporter): 4.19e-09 M; pIC50 (AHR [2]; [4]): 8.31
11 | CCCNC(=O)[C@H](C)Nc1nc2c(Br)cccc2c2nc(-c3ccc(Cl)cc3OC(F)(F)F)nn12 [Example 811, N^2-{7-bromo-2-[4-chloro-2-(trifluoromethoxy)phenyl][1,2,4]triazolo[1,5-c]quinazolin-5-yl}-N-propyl-L-alaninamide] |  |  | IC50 (AHR [1]; firefly luciferase reporter): > 5.71e-06 M and 4.65e-06 M and > 2e-06 M; pIC50 (AHR [2]; [4]): 7.36
12 | Cn1cc(-c2nc3c4cc(Br)cc(Br)c4nc(N[C@@H]4CCCCNC4=O)n3n2)cn1 [Example 594, (3R)-3-{[7,9-dibromo-2-(1-methyl-1H-pyrazol-4-yl)[1,2,4]triazolo[1,5-c]quinazolin-5-yl]amino}azepan-2-one] | 5.01e-07 | < 4.70 | 
13 | COc1cccc(-c2nc3c4ccc(F)cc4nc(N[C@H]4CCCCNC4=O)n3n2)c1 [Example 150, (3S)-3-{[8-fluoro-2-(3-methoxyphenyl)[1,2,4]triazolo[1,5-c]quinazolin-5-yl]amino}azepan-2-one] | 1.97e-07 | 7.31 | 
14 | CS(=N)(=O)c1ccc(-c2nc3c4ccccc4nc(N[C@@H]4CCCCNC4=O)n3n2)cc1 (stereo partly drawn) [Example 306, (3R)-3-({2-[4-(S-methylsulfonimidoyl)phenyl][1,2,4]triazolo[1,5-c]quinazolin-5-yl}amino)azepan-2-one] | 1.09e-07 | 7.51 | 
15 | Cc1cscc1-c1nc2c3ccccc3nc(N[C@@H]3CCNC3=O)n2n1 [Example 541] | 3.5e-08 | 6.20 | 
16 | CC(C)n1cc(-c2nc3c4cccc(C#N)c4nc(N[C@@H]4CCCCNC4=O)n3n2)cn1 [Example 760, 5-{[(3R)-2-oxoazepan-3-yl]amino}-2-[1-(propan-2-yl)-1H-pyrazol-4-yl][1,2,4]triazolo[1,5-c]quinazoline-7-carbonitrile] | 3.6e-09 | 8.00 | 
17 | O=C1NCCC[C@H]1Nc1nc2ccccc2c2nc(-c3ccncc3F)nn12 [Example 482, (3R)-3-{[2-(3-fluoropyridin-4-yl)[1,2,4]triazolo[1,5-c]quinazolin-5-yl]amino}piperidin-2-one] | 2.23e-06 | 5.50 | 
18 | CCc1noc(-c2nc3c4ccccc4nc(N[C@@H]4CCCCNC4=O)n3n2)n1 [Example 132, (3R)-3-{[2-(3-ethyl-1,2,4-oxadiazol-5-yl)[1,2,4]triazolo[1,5-c]quinazolin-5-yl]amino}azepan-2-one] | 2.15e-08 | 7.58 | 
19 | CC[C@@H](Nc1nc2ccccc2c2nc(-c3ccc(OC)cc3C(F)(F)F)nn12)C(N)=O [Example 515, (2R)-2-({2-[4-methoxy-2-(trifluoromethyl)phenyl][1,2,4]triazolo[1,5-c]quinazolin-5-yl}amino)butanamide] | 3.17e-08 | 8.69 | 
20 | COc1ccc2nc(N[C@@H]3CCCCNC3=O)n3nc(-c4ccc(F)cc4)nc3c2c1 [Example 239, (3R)-3-{[2-(4-fluorophenyl)-9-methoxy[1,2,4]triazolo[1,5-c]quinazolin-5-yl]amino}azepan-2-one] | 8.92e-09 | 7.99 | 
21 | CC[C@@H](Nc1nc2c(Br)cccc2c2nc(-c3ccnn3C)nn12)C(N)=O [Example 800, (2R)-2-{[7-bromo-2-(1-methyl-1H-pyrazol-5-yl)[1,2,4]triazolo[1,5-c]quinazolin-5-yl]amino}butanamide] |  |  | IC50 (AHR [1]; firefly luciferase reporter): 2.37e-09 M; pIC50 (AHR [2]; read-out: AHR Antagonism Mouse IC50, Hepa 1c1c7 cells, 200 μM kynurenic acid, 20 hours, firefly luciferase reporter): 8.77
22 | CCNC(=O)C(CC)Nc1nc2ccccc2c2nc(-c3ccccc3OC(F)(F)F)nn12 (stereo not drawn) [Example 463, N-ethyl-2-({2-[2-(trifluoromethoxy)phenyl][1,2,4]triazolo[1,5-c]quinazolin-5-yl}amino)butanamide] | 2.94e-08 | 8.73 | 
23 | CC[C@@H](Nc1nc2ccccc2c2nc(-c3ccsc3C)nn12)C(N)=O [Example 351] | 1.37e-09 | 9.90 | 
24 | Cc1c(-c2nc3c4cccc(F)c4nc(N[C@@H]4CNCCNC4=O)n3n2)cnn1C [Example 969, (6R)-6-{[2-(1,5-dimethyl-1H-pyrazol-4-yl)-7-fluoro[1,2,4]triazolo[1,5-c]quinazolin-5-yl]amino}-1,4-diazepan-5-one] |  |  | IC50 (AHR [1]; firefly luciferase reporter): 6.3e-07 M; pIC50 (AHR [2]; [4]): 6.53
